Measurements taken from patent US7271005B2, “Modulation of bacterial membrane permeability” (priority 2002, dated 2007).

T1: PprA / PprB (Pseudomonas aeruginosa, UniProt Q9HWA7)
T1 construct: coding regions of the two open reading frames were amplified by PCR; His-tag; made in house; host or cells: E. coli strain M15 (pREP4) with pYW021 (pQE32-pprA) or pYW024 (pQE31-pprB)
T1 sequence (Q9HWA7 1-922): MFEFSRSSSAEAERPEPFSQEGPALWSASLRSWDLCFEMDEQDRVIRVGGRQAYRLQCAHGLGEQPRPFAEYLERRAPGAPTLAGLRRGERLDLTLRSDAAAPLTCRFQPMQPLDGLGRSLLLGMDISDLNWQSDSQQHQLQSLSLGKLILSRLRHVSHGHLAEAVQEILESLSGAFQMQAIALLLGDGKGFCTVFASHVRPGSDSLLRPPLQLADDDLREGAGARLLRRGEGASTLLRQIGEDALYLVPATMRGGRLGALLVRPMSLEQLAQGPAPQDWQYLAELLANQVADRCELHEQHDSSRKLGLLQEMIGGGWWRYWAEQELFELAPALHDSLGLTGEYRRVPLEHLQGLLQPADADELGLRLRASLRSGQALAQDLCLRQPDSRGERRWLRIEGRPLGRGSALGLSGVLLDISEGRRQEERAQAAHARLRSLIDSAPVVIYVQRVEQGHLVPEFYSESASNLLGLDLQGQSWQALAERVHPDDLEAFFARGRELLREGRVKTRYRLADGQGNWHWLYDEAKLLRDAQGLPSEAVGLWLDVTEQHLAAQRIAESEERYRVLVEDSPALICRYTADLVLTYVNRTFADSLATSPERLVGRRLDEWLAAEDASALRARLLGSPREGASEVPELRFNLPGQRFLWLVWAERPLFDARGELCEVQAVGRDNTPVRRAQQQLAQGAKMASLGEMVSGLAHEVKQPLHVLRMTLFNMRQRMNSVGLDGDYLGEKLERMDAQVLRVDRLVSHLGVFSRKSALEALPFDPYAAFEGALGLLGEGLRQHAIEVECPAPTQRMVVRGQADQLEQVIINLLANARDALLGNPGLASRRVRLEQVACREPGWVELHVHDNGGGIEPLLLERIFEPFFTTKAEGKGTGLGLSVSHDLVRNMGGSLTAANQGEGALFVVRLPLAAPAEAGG

B1: PprB: putative response regulator (PA4296) encoded by pprB, SEQ ID NO:4; His-tagged, purified from E. coli (protein, listed as Pseudomonas aeruginosa)
chain: MDKPASRHFSVLIIDDEPQVTSELRELLENSGYRCVTSTHRESAIASFQADPNIGLVICDLYLGQDNGIRLIESLKEVAGNGRFFESIILTGHDGRQEVIEAMRVGAADYYQKPVAPQELLHGLERLESRLHERVRSQLSLSHVNQRLEYLAESLNSIYRDIHKIKYEVHGNSQPSALRSEDSQPSAPPAPVAESQVSPSNPLFGKLSPRQQAVARLVSKGLTNYQIAYELGITENTVKLYVSQVLRLMHMHNRTQLALALSPAAMQQGSGAVVH
modifications: His tag
notes: His-tagged, purified from E. coli
B2: PprA: putative histidine kinase homolog (PA4293) encoded by pprA, SEQ ID NO:3; His-tagged, purified from E. coli (protein, listed as Pseudomonas aeruginosa)
chain: MFEFSRSSSAEAERPEPFSQEGPALWSASLRSWDLCFEMDEQDRVIRVGGRQAYRLQCAHGLGEQPRPFAEYLERRAPGAPTLAGLRRGERLDLTLRSDAAAPLTCRFQPMQPLDGLGRSLLLGMDISDLNWQSDSQQHQLQSLSLGKLILSRLRHVSHGHLAEAVQEILESLSGAFQMQAIALLLGDGKGFCTVFASHVRPGSDSLLRPPLQLADDDLREGAGARLLRRGEGASTLLRQIGEDALYLVPATMRGGRLGALLVRPMSLEQLAQGPAPQDWQYLAELLANQVADRCELHEQHDSSRKLGLLQEMIGGGWWRYWAEQELFELAPALHDSLGLTGEYRRVPLEHLQGLLQPADADELGLRLRASLRSGQALAQDLCLRQPDSRGERRWLRIEGRPLGRGSALGLSGVLLDISEGRRQEERAQAAHARLRSLIDSAPVVIYVQRVEQGHLVPEFYSESASNLLGLDLQGQSWQALAERVHPDDLEAFFARGRELLREGRVKTRYRLADGQGNWHWLYDEAKLLRDAQGLPSEAVGLWLDVTEQHLAAQRIAESEERYRVLVEDSPALICRYTADLVLTYVNRTFADSLATSPERLVGRRLDEWLAAEDASALRARLLGSPREGASEVPELRFNLPGQRFLWLVWAERPLFDARGELCEVQAVGRDNTPVRRAQQQLAQGAKMASLGEMVSGLAHEVKQPLHVLRMTLFNMRQRMNSVGLDGDYLGEKLERMDAQVLRVDRLVSHLGVFSRKSALEALPFDPYAAFEGALGLLGEGLRQHAIEVECPAPTQRMVVRGQADQLEQVIINLLANARDALLGNPGLASRRVRLEQVACREPGWVELHVHDNGGGIEPLLLERIFEPFFTTKAEGKGTGLGLSVSHDLVRNMGGSLTAANQGEGALFVVRLPLAAPAEAGG
modifications: His tag
notes: as for B1

Experiments:
[1] = system: P. aeruginosa PAK1-3; experiment: Antibiotic resistance of spontaneous neomycin-resistant mutant PAK1-3 compared with parent PAK; assay type: cell-based, Pseudomonas aeruginosa; conditions: mutant PAK1-3 versus parent strain PAK
Procedure: A mutant P. aeruginosa (PAK) strain was used to identify the pprA membrane permeability-associated gene. Spontaneous neomycin resistant mutants of PAK were selected by culturing on L-agar medium containing 200 μg/ml neomycin.

[2] = system: clinical isolates of P. aeruginosa; experiment: Antibiotic sensitivity of CF and non-CF blood clinical isolates; assay type: cell-based, Pseudomonas aeruginosa; conditions: 18 CF and 18 non-CF blood isolates; tetracycline 100 μg/ml
Procedure: Overexpression of the pprB gene in clinical isolates increases sensitivity to aminoglycosides. The pprB overexpresser construct was introduced into aminoglycoside-resistant clinical isolates of P. aeruginosa. 18 cystic fibrosis (CF) isolates and 18 non-CF blood isolates showing varying degrees of resistance to all aminoglycosides were randomly chosen for analysis. Since most of the strains were also resistant to carbenicillin, but sensitive to tetracycline (100 μg/ml), a tetracycline-resistant construct, pRRBTc, that expresses the pprB gene under lac promoter was used.

[3] = biological target: T1, PprA / PprB; experiment: In vitro phosphorylation assay with [γ-32P] ATP; assay type: biochemical; conditions: 5 min at room temperature, SDS-PAGE, X-ray film
Text: (§1) PprA or PprB were purified and expressed at high levels in E. coli. To produce PprA or PprB in E.coli, coding regions of the two open reading frames were amplified by PCR as described in Wang et al., supra. The PCR products were first cloned into pCR2.1-TOPO, designated pYW017 and pYW020, respectively. Subsequently, a 2.8 kb pprA fragment from pYW017 and an 862 bp pprB fragment from pYW020 were isolated and subcloned into the BamHI and HindIII sites of pQE32 and pQE31, resulting in pYW021 and pYW024, respectively.
(§2) To purify the His-tagged PprA or PprB, E.coli strain M15 harboring pREP4 and pYW021 or pYW024 were induced with 1 mM IPTG for six hours at 28° C. His-tagged PprA and PprB were affinity purified using Ni-agarose column from the soluble fraction of the cell extracts according to the protocol provided by Qiagen, Inc. The purified proteins were dialyzed against storage buffer (50 mM TrisCl pH8.0, 50 mM KCl, 5 mM MgCl2, 1 mM DTT and 50% glycerol) for overnight and stored at−20° C. until use.
(§3) PprA and PprB function in a two-component regulatory system. Like other two-component regulatory genes, both PprA and PprB contain conserved phosphorylation sites (histidine and aspartate, respectively). An in vitro phosphorylation assay was performed to investigate the relationship between the PprA and PprB. PprA and PprB were purified as described in Example 4. […]

[4] = system: PAK1-3 cells; experiment: Complementation of PAK1-3: aminoglycoside sensitivity after introduction of plasmids; assay type: cell-based, Pseudomonas aeruginosa; conditions: PprB overexpression compared with PprA overexpression
Text: A gene associated with membrane permeability, termed pprA, was identified by complementation assay in PAK1-3 cells. On the assumption that the PAK1-3 strain is an impermeable mutant due to loss of a gene function, an effort was made to complement the mutant with wild type PAK chromosomal DNA clones. A clone bank of 3-5 kb PAK chromosomal DNA was constructed in pUCP18, a broad host range plasmid with a lac promoter and β-lactamase. Plasmids with DNA inserts were gel purified from the clone bank and electroporated into PAK1-3.
Transformants were first selected on L-agar containing carbenicillin (150 μg/ml) and then replica plated on L-agar containing carbenicillin (150 μg/ml) plus neomycin (200 μg/ml) to screen for isolates that are sensitive to aminoglycosides. […] Plasmids were purified from the three isolates and re-transformed into fresh PAK1-3 cells. […] This plasmid was designated pUCP18B.
The pprB gene was amplified from the PAK chromosome by PCR and cloned into pUCP19, inserted in the same or opposite direction relative to the lac promoter on the vector. The resulting constructs were designated pZLRR-α and pZLRR-β, respectively. See, Wang et al., 2003, Antimicrobial Agents and Chemotherapy 47:95-101. The PCR product was cloned into pCR2.1-TOPO, resulting pCR-RR in which the pprB gene is in the opposite direction relative to the lac promoter. […]

[5] = system: PprA / PprB; experiment: In vitro phosphorylation assay with [γ-32P] ATP; assay type: biochemical, Pseudomonas aeruginosa; conditions: 5 min at room temperature, SDS-PAGE, X-ray film
Text: as §1, §2, §3

Molecule | change of resistance/sensitivity of PAK1-3 to the antibiotic [1] | also measured
NCC[C@H](O)C(=O)N[C@@H]1C[C@H](N)[C@@H](O[C@H]2O[C@H](CN)[C@@H](O)[C@H](O)[C@H]2O)[C@H](O)[C@H]1O[C@H]1O[C@H](CO)[C@@H](O)[C@H](N)[C@H]1O [amikacine] | increased resistance | –
CC1(C)S[C@@H]2[C@H](NC(=O)C(C(=O)O)c3ccccc3)C(=O)N2[C@H]1C(=O)O (some centres unmarked) [carbenicillin] | not significantly changed | sensitivity of most of the clinical isolates [2]: resistant
O=C(O)c1cn(C2CC2)c2cc(N3CCNCC3)c(F)cc2c1=O [ciprofloxacin] | increased resistance | –
CC[C@H]1OC(=O)[C@H](C)[C@@H](O[C@H]2C[C@@](C)(OC)[C@@H](O)[C@H](C)O2)[C@H](C)[C@@H](O[C@@H]2O[C@H](C)C[C@H](N(C)C)[C@H]2O)[C@](C)(O)C[C@@H](C)C(=O)[C@H](C)[C@@H](O)[C@]1(C)O [erythromycin] | increased resistance | –
[H]/N=C(/N)N[C@H]1[C@H](O)[C@@H](O)[C@H](O[C@@H]2O[C@@H](C)[C@](O)(C=O)[C@H]2O[C@@H]2O[C@@H](CO)[C@H](O)[C@@H](O)[C@@H]2NC)[C@@H](N/C(N)=N\[H])[C@@H]1O [streptomycin] | increased resistance | –
NC[C@H]1O[C@H](O[C@H]2[C@H](O)[C@@H](O[C@H]3O[C@H](CO)[C@@H](O)[C@H](N)[C@H]3O)[C@H](N)C[C@@H]2N)[C@H](N)C[C@@H]1O [tobamycin] | increased resistance | –
gentamicin | increased resistance | –
B1 | – | phosphorylation of PprB when PprA was mixed with PprB [3]: highly phosphorylated; effect of overexpression on the MIC change of PAK1-3 [4]: much more dramatic
B2 | – | phosphorylation of the purified protein alone [5]: phosphorylated
